Measured values from patent publication US9115133B2, “Substituted fused tricyclic compounds, compositions and medicinal applications thereof” (Advinus Therapeutics Limited, priority 2011, dated 2015).

Tests used:
Format in all cases: biochemical
Conditions in all cases: 200 μg/ml Poly Glu-Tyr (4:1), ATP 1 uM, 90 min room temperature, luminescence
[1] = molecular target: T1, Recombinant JAK1 (Amino acids 850-1154) (Homo sapiens, UniProt P23458); test: Kinase-Glo Luminescent Kinase Assay, recombinant JAK1
T1 construct: Recombinant JAK1 (Amino acids 850-1154; NM_002227.2); made in house; host or cells: baculovirus expression system (Bac-to-Bac)
Description: (§1) Recombinant JAK1 (Amino acids 850-1154; NM_002227.2), JAK2 (Amino acids 808-1132; NM_004972.3) and JAK3 (Amino acids 781-1124; NM_000215.3) used in the studies were expressed using Invitrogen's Bac-to-Bac baculovirus expression system according to manufacturer's instructions. Adenosine 5′-triphosphate was obtained from Sigma Aldrich chemicals (Cat # A7699). Poly Glu-Tyr (4:1) sodium salt was obtained from Sigma Aldrich (Cat # P0275), Kinase Glo® Luminescent Kinase assay kit was obtained from Promega (Cat # V6713) Kinase activity was assessed by Promega Kinase-Glo® Luminescent Kinase Assay kit using 200 μg/ml Poly Glu-Tyr (4:1) as substrate and ATP at 1 uM concentration. The reactions were carried out in 384 well plates in total reaction volume of 20 uL. Reaction mixtures contained 50 mM HEPES pH 7.4, 5 mM MgCl2, 1 mM DTT, 0.01% BSA, 0.01% Tween 20. Kinase was pre-incubated with compounds or 1% DMSO for 5 min before addition of substrate and ATP to check for inhibition. Kinase reactions were carried out at room temperature for 90 min. The reactions were stopped by adding 5 μl of Kinase Glo® reagent & 10 μl of reaction mixture followed by measuring luminescence. The luminescent signal is correlated with the amount of ATP present at the end of kinase reaction and is inversely correlated with the amount of kinase activity. For each data point, % inhibition is calculated based on uninhibited reaction (without compound) which is considered as 100% activity over no enzyme or substrate controls. Dose response data is then fit using a four parameter logistic equation using Graph-pad Prism 5 software to determine inhibition constant 50 (IC50).

[2] = molecular target: T2, Recombinant JAK2 (Amino acids 808-1132) (Homo sapiens, UniProt O60674); test: Kinase-Glo Luminescent Kinase Assay, recombinant JAK2
T2 construct: JAK2 (Amino acids 808-1132; NM_004972.3); made in house; host or cells: baculovirus expression system (Bac-to-Bac)
Description: as §1

[3] = molecular target: T3, Recombinant JAK3 (Amino acids 781-1124) (Homo sapiens, UniProt P52333); test: Kinase-Glo Luminescent Kinase Assay, recombinant JAK3
T3 construct: JAK3 (Amino acids 781-1124; NM_000215.3); made in house; host or cells: baculovirus expression system (Bac-to-Bac)
Description: as §1

T2 sequence (O60674 808-1132): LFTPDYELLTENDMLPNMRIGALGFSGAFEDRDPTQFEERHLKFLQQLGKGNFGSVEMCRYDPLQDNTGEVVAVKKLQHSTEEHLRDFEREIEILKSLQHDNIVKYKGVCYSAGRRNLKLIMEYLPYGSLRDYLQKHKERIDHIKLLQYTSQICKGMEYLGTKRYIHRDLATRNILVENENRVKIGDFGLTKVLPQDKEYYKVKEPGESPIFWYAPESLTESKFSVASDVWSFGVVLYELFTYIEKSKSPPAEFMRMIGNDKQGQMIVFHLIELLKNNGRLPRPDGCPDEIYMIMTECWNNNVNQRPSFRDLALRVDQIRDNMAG
T3 sequence (P52333 781-1124): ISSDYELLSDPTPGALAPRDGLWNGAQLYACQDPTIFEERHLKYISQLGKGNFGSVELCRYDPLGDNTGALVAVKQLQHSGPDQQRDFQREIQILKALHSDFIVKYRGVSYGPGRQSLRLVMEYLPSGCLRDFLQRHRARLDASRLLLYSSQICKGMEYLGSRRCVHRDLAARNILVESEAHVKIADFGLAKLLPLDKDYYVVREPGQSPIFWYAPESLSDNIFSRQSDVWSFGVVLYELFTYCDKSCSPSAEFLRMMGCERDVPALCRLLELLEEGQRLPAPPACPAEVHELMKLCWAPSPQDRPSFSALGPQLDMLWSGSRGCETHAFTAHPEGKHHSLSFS
T1 sequence (P23458 850-1154): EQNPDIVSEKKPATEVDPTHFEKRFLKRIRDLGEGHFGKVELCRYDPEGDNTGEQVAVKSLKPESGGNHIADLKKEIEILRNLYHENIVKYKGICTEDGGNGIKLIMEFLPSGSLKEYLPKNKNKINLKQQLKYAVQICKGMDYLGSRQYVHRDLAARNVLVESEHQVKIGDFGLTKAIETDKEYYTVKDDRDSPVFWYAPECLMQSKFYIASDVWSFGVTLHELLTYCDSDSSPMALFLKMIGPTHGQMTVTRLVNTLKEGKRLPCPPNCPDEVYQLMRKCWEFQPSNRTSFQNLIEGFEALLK

Row | IC50 [1] [nM] | IC50 [2] [nM] | IC50 [3] [nM] | Compound
1 | > 20 | 1 to 20 | > 20 | O=S(=O)(N1CCC(c2ccnc3cnc4[nH]ccc4c23)C1)C(F)(F)F (stereo not shown) [Ex. 17, 9-[1-(trifluoromethylsujlfonyl)pyrrolidin-3-yl]-3H-pyrrolo[3,2-f][1,7]naphthyridine]
2 | 1 to 20 | 1 to 20 | 1 to 20 | CS(=O)(=O)N1CCCC(c2ccnc3cnc4[nH]ccc4c23)C1 (stereo not shown) [Ex. 10, 9-(1-methylsulfonyl-3-piperidyl)-3H-pyrrolo[3,2-f][1,7]naphthyridine]
3 | > 20 | > 20 | > 20 | CC(C)NC(=O)N1CCCC(c2ncnc3cnc4[nH]ccc4c23)C1 (stereo not shown) [Ex. 32, 3-(3H-3,4,6,8-Tetraaza-cyclopenta[a]naphthalen-9-yl)-piperidine-1-carboxylic acid isopropylamide]
4 | > 20 | > 20 | > 20 | CNC(=O)C1CCCN(c2ccnc3cnc4[nH]ccc4c23)C1 (stereo not shown) [Ex. 71, N-methyl-1-(3H-pyrrolo[3,2-f][1,7]naphthyridin-9-yl)piperidine-3-carboxamide]
5 | 1 to 20 | 1 to 20 | 1 to 20 | O=C(NCC(F)(F)F)C1CCCN(c2ccnc3cnc4[nH]ccc4c23)C1 (stereo not shown) [Ex. 83, 1-(3H-pyrrolo[3,2-f][1,7]naphthyridin-9-yl)-N-(2,2,2-trifluoroethyl)piperidine-3-carboxamide]
6 | 1 to 20 | 1 to 20 | > 20 | CC(C)(C)C(=O)N1CCCC(c2ncnc3cnc4[nH]ccc4c23)C1 (stereo not shown) [Ex. 28, 2,2-Dimethyl-1-[3-(3H-3,4,6,8-tetraaza-cyclopenta[a]naphthalen-9-yl)-piperidin-1-yl]-propan-1-one]
7 | > 20 | > 20 | > 20 | CNC(=O)N1CCCC(c2ccnc3cnc4[nH]ccc4c23)C1 (stereo not shown) [Ex. 50, N-methyl-3-(3H-pyrrolo[3,2-f][1,7]naphthyridin-9-yl)piperidine-1-carboxamide]
8 | > 20 | > 20 | > 20 | O=C(CC(F)(F)F)N1CCC[C@@H](c2ncnc3cnc4[nH]ccc4c23)C1 [Ex. 24A, (R)3,3,3-Trifluoro-1-[3-(3H-3,4,6,8-tetraazacyclopenta[a]naphthalen-9-yl)-piperidin-1-yl]-propan-1-one]
9 | – | > 20 | > 20 | COCCOC1CCCN(c2ccnc3cnc4[nH]ccc4c23)C1 (stereo not shown) [Ex. 57, 9-[3-(2-methoxyethoxy)-1-piperidyl]-3H-pyrrolo[3,2-f][1,7]naphthyridine]
10 | 1 to 20 | 1 to 20 | > 20 | N#CCC(=O)N1CC[C@@H](c2ccnc3cnc4[nH]ccc4c23)C1 [Ex. 14B, (S)3-oxo-3-[3-(3H-pyrrolo[3,2-f][1,7]naphthyridin-9-yl)pyrrolidin-1-yl]propanenitrile]
11 | > 20 | 1 to 20 | 1 to 20 | CC(C)/C(=N\C#N)N1CCCC(c2ccnc3cnc4[nH]ccc4c23)C1 (stereo not shown) [Ex. 43, (E)-[2-methyl-1-[3-(3H-pyrrolo[3,2-f][1,7]naphthyridin-9-yl)-1-piperidyl]propylidene]cyanamide]
12 | – | 1 to 20 | 1 to 20 | O=S(=O)(CC(F)(F)F)NC1CCCN(c2ccnc3cnc4[nH]ccc4c23)C1 (stereo not shown) [Ex. 86, 2,2,2-trifluoro-N-[1-(3H-pyrrolo[3,2-f][1,7]naphthyridin-9-yl)-3-piperidyl] ethanesulfonamide]
13 | 1 to 20 | 1 to 20 | > 20 | CS(=O)(=O)CC(=O)N1CCCC(c2ccnc3cnc4[nH]ccc4c23)C1 (stereo not shown) [Ex. 12, 2-methylsulfonyl-1-[3-(3H-pyrrolo[3,2-f][1,7]naphthyridin-9-yl)-1-piperidyl]ethanone]
14 | – | > 20 | > 20 | N#CCS(=O)(=O)N1CC[C@@H](c2ccnc3cnc4[nH]ccc4c23)C1 [Ex. 16B, (S)2-[3-(3H-pyrrolo[3,2-f][1,7]naphthyridin-9-yl)pyrrolidin-1-yl]sulfonylacetonitrile]
15 | – | 1 to 20 | 1 to 20 | N#CCC(=O)N1CCC[C@H](c2ncnc3cnc4[nH]ccc4c23)C1 [Ex. 23B, (S)3-Oxo-3-[3-(3H-3,4,6,8-tetraazacyclopenta[a]naphthalen-9-yl)-piperidin-1-yl]-propionitrile]
16 | – | > 20 | 1 to 20 | c1cc(N2CCC(OCC3CC3)C2)c2c(cnc3[nH]ccc32)n1 (stereo not shown) [Ex. 59, 9-[3-(cyclopropylmethoxy)pyrrolidin-1-yl]-3H-pyrrolo[3,2-f][1,7]naphthyridine]

Row | IC50 [1] [nM] | IC50 [2] [nM] | IC50 [3] [nM] | Compound
17 | – | > 20 | > 20 | CS(=O)(=O)N1CCC[C@H](c2ccnc3cnc4[nH]ccc4c23)C1 [Ex. 10A, (R)9-(1-methylsulfonyl-3-piperidyl)-3H-pyrrolo[3,2-f][1,7]naphthyridine]
18 | – | 1 to 20 | 1 to 20 | O=S(=O)(CC(F)(F)F)NC1CCN(c2ccnc3cnc4[nH]ccc4c23)C1 (stereo not shown) [Ex. 90, 2,2,2-trifluoro-N-[1-(3H-pyrrolo[3,2-f][1,7]naphthyridin-9-yl)pyrrolidin-3-yl] ethanesulfonamide]
19 | – | 1 to 20 | 1 to 20 | O=C(CC(F)(F)F)N1CCC[C@H](c2ncnc3cnc4[nH]ccc4c23)C1 [Ex. 24B, (S)3,3,3-Trifluoro-1-[3-(3H-3,4,6,8-tetraazacyclopenta[a]naphthalen-9-yl)-piperidin-1-yl]-propan-1-one]
20 | – | 1 to 20 | > 20 | CC(C)S(=O)(=O)NC1CCN(c2ccnc3cnc4[nH]ccc4c23)C1 (stereo not shown) [Ex. 92, N-[1-(3H-pyrrolo[3,2-f][1,7]naphthyridin-9-yl)pyrrolidin-3-yl]propane-2-sulfonamide]
21 | – | 1 to 20 | > 20 | O=S(=O)(NC1CCN(c2ccnc3cnc4[nH]ccc4c23)C1)C1CC1 (stereo not shown) [Ex. 91, N-[1-(3H-pyrrolo[3,2-f][1,7]naphthyridin-9-yl)pyrrolidin-3-yl]cyclopropanesulfon-amide]
22 | – | > 20 | > 20 | O=C(NC1CC1)N1CCCC(c2ccnc3cnc4[nH]ccc4c23)C1 (stereo not shown) [Ex. 46, N-cyclopropyl-3-(3H-pyrrolo[3,2-f][1,7]naphthyridin-9-yl)piperidine-1-carboxamide]
23 | – | 1 to 20 | 1 to 20 | O=C(OCC(F)(F)F)N1CCCC(c2ccnc3cnc4[nH]ccc4c23)C1 (stereo not shown) [Ex. 51, 2,2,2-trifluoroethyl 3-(3H-pyrrolo[3,2-f][1,7]naphthyridin-9-yl)piperidine-1-carboxylate]
24 | – | > 20 | > 20 | CN(CC1CC1)C1CCN(c2ccnc3cnc4[nH]ccc4c23)C1 (stereo not shown) [Ex. 62, N-(cyclopropylmethyl)-N-methyl-1-(3H-pyrrolo[3,2-f][1,7]naphthyridin-9-yl)pyrrolidin-3-amine]
25 | – | 1 to 20 | 1 to 20 | CC(C)OC(=O)N1CCCC(c2ccnc3cnc4[nH]ccc4c23)C1 (stereo not shown) [Ex. 52, Isopropyl 3-(3H-pyrrolo[3,2-f][1,7]naphthyridin-9-yl)piperidine-1-carboxylate]
26 | – | > 20 | > 20 | O=C(NC1CC1)[C@H]1CCCN(c2ccnc3cnc4[nH]ccc4c23)C1 [Ex. 61A, (3S)-N-cyclopropyl-1-(3H-pyrrolo[3,2-f][1,7]naphthyridin-9-yl)piperidine-3-carboxamide]
27 | – | > 20 | > 20 | O=C(NC1CC1)C1CCCN(c2ccnc3cnc4[nH]ccc4c23)C1 (stereo not shown) [Ex. 61, N-cyclopropyl-1-(3H-pyrrolo[3,2-f][1,7]naphthyridin-9-yl)piperidine-3-carboxamide]
28 | – | 1 to 20 | > 20 | N#CCS(=O)(=O)N1CC[C@H](c2ccnc3cnc4[nH]ccc4c23)C1 [Ex. 16A, (R)2-[3-(3H-pyrrolo[3,2-f][1,7]naphthyridin-9-yl)pyrrolidin-1-yl]sulfonylacetonitrile]
29 | – | 1 to 20 | 1 to 20 | c1cc(N2CCCCC2)c2c(cnc3[nH]ccc32)n1 [Ex. 58, 9-(1-piperidyl)-3H-pyrrolo[3,2-f][1,7]naphthyridine]
30 | – | 1 to 20 | > 20 | O=C(CC(F)(F)F)N1CC[C@@H](c2ccnc3cnc4[nH]ccc4c23)C1 [Ex. 15B, (S)3,3,3-trifluoro-1-[3-(3H-pyrrolo[3,2-f][1,7]naphthyridin-9-yl)pyrrolidin-1-yl]propan-1-one]
31 | – | > 20 | > 20 | CC(C)(C)OC(=O)NC1CCN(c2ccnc3cnc4[nH]ccc4c23)C1 (stereo not shown) [Comp. 124, tert-Butyl N-[1-(3H-pyrrolo[3,2-f][1,7]naphthyridin-9-yl)pyrrolidin-3-yl]carbamate]
